Assay [1] deals with Gluten-reactive T-cell lines (TCLs) from celiac disease patients' biopsies. As to the kind of experiment: T-cell activation assay (IFN-γ ELISA). It is filed as cell-based, human. As to conditions: peptides 10 μM, 48 h; positive if IFNγ ≥2-fold vs control and significantly higher (one-sided t-test). The method, then: 200 mg of protein were first incubated in 5% formic acid with 4 mg pepsin for 4 hours in 37° C. Then the sample was evaporated using speedVac. On the following day, the protein was incubated with 4 mg chymotrypsin in 20 mM ammonium-bicarbonate for 4 hours in 37° C., followed by speedVac evaporation. The concentration of the digest was then measured, and the digest was deamidated using transglutaminase, 2 U per 7 mg digest for 6 hours in 37° C. The samples were then cleaned using a C18 column, dried and resuspended in media at a concentration of 2 mg/ml. […]
TCLs from celiac disease patients' biopsies were assayed for responses to deamidated PCT-HMW proteins and HMW peptides by the detection of IFN-7 by enzyme-linked immunosorbent assay (ELISA), as previously described (Gianfrani, Carmen, et al. “Gliadin-specific type 1 regulatory T cells from the intestinal mucosa of treated celiac patients inhibit pathogenic T cells.” The journal of immunology 177.6 (2006): 4178-4186.). […] The reaction was stopped, and the plate was read on the ELISA plate reader at […]. The results were analyzed using Graphpad Prism and IFNγ levels were determined. […]

The next assay addresses HLA-DQ2.5 (Homo sapiens, UniProt P01909+P01920, A45G/A70V/D89A/E106A/E77G/E98D/H199R/L107V/N214S/P84L/P87L/T103K/T109R/T172A/T60S/V78E/V99I/Y58L/Y62S/Y69I/Y79F). Kind of assay: MHC II/peptide competition binding assay, HLA-DQ2.5. The method, then:
(§1) One skilled in the art would appreciate that the 15-mers used included shorter de-epitoped high molecular weight glutenin peptide sequences (mutated repeating antigenic units), as described throughout. For example, Table 2 provides a listing of 15-mers and the shorter mutated repeating antigenic units present therein. […] MHC II molecules were purified by affinity chromatography, and peptides were radiolabeled using the chloramine T method. After an incubation period, the bound and unbound radiolabeled species were separated, and their relative amounts were determined by either size-exclusion gel-filtration chromatography or monoclonal antibody capture of MHC. The percent of bound radioactivity was then determined.

The next assay concerns the target HLA-DQ8 (Homo sapiens, UniProt P01909+P01920, A209T/A45G/C70Q/D89A/DUP78-78/E183D/E77G/F237L/G63E/H199R/I129T/K197E/L178F/L74F/L98V/Q57E/Q76R/S185I/S97I/T217I/T49S/V73L/Y58L). Kind of assay: MHC II/peptide competition binding assay, HLA-DQ8. The method, then:
as §1

pIC50: −log10 of the molar value. Residues, ends and D or L forms follow the SMILES beside them. Where only a bound is given, the exact number is not on record here.

Take `C[C@@H](O)[C@H](NC(=O)[C@@H]1CCCN1C(=O)[C@H](Cc1ccc(O)cc1)NC(=O)[C@H](Cc1ccc(O)cc1)NC(=O)CNC(=O)[C@H](CCCCN)NC(=O)[C@H](CCC(N)=O)NC(=O)CNC(=O)[C@@H](N)CCC(N)=O)C(=O)N[C@@H](CO)C(=O)N1CCC[C@H]1C(=O)N[C@@H](Cc1c[nH]cn1)C(=O)N[C@@H](CCC(N)=O)C(=O)N[C@@H](CO)C(=O)NCC(=O)O` [SEQ ID NO: 143] (H-QGQKGYYPTSPHQSG-OH; N-terminus assumed): the “T-cell activation (IFN-γ levels by ELISA)” value in assay [1] is “abolishment of T-cell activation”. Besides, the negative logarithm of the IC50 (pIC50) on HLA-DQ2.5 is 4.46; at HLA-DQ8, less than 4.40.

The values are drawn from US20230416314A1, “MODIFIED HIGH MOLECULAR WEIGHT GLUTENIN SUBUNIT AND USES THEREOF” (Ukko Inc., priority 2020, published 2023).
